Measurements from ChEMBL document CHEMBL4800726, “Data for DCP probe MSC-4381” (2021).
Values belong to the molecule of their own block, whether it stands above or below them.

Assays:
[1] = biological target: 5-hydroxytryptamine receptor 6 (Homo sapiens, UniProt P50406); experiment: GPCRScan assay: inhibition of 5-HT6; design: radioligand conc. used [nm] 2.0 – 4.0, parental cells stable HEK
[2] = biological target: T1, Sodium-dependent dopamine transporter (Homo sapiens, UniProt Q01959); experiment: GPCRScan assay: inhibition of DAT; design: radioligand conc. used [nm] 3.6 – 16.0, parental cells stable HEK
[3] = biological target: Monocarboxylate transporter 4 (Homo sapiens, UniProt O15427); experiment: Lactate efflux inhibition assay (MDA-MB-231)
[4] = biological target: T2, 5-hydroxytryptamine receptor 3A (Homo sapiens) (UniProt P46098); settings: Compound concentration 10.0 uM
T2 sequence (whole entry): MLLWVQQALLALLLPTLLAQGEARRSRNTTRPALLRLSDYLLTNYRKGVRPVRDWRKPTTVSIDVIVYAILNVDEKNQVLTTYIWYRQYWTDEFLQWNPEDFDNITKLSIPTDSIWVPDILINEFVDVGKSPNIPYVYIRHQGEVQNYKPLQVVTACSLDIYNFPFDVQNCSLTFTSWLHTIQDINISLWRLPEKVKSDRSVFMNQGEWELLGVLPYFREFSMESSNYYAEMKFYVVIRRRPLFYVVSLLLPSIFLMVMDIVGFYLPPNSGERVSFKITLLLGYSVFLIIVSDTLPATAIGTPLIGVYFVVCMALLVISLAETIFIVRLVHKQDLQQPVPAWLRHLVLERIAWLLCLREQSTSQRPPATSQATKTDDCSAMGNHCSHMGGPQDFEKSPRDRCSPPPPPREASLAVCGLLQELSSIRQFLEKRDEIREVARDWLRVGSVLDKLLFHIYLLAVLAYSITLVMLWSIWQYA

[5] = biological target: T3, 5-hydroxytryptamine receptor 5A (Homo sapiens, UniProt P47898); settings: Compound concentration 10.0 uM
[6] = biological target: D(2) dopamine receptor (Homo sapiens) (UniProt P14416); settings: Compound concentration 10.0 uM
[7] = biological target: Sodium-dependent noradrenaline transporter (Homo sapiens) (UniProt P23975); settings: Compound concentration 10.0 uM
[8] = biological target: T4, GABA-A receptor; anion channel (Rattus norvegicus) (UniProt O09028+P15431+P18506+P18508+P19969+P20236+P23574+P23576+P28471+P28473+P30191+P62813+P63079+P63138+Q91ZM7+Q9ES14); settings: Compound concentration 10.0 uM
[9] = biological target: T5, Muscarinic acetylcholine receptor M5 (Homo sapiens) (UniProt P08912); settings: Compound concentration 10.0 uM
T5 sequence (whole entry): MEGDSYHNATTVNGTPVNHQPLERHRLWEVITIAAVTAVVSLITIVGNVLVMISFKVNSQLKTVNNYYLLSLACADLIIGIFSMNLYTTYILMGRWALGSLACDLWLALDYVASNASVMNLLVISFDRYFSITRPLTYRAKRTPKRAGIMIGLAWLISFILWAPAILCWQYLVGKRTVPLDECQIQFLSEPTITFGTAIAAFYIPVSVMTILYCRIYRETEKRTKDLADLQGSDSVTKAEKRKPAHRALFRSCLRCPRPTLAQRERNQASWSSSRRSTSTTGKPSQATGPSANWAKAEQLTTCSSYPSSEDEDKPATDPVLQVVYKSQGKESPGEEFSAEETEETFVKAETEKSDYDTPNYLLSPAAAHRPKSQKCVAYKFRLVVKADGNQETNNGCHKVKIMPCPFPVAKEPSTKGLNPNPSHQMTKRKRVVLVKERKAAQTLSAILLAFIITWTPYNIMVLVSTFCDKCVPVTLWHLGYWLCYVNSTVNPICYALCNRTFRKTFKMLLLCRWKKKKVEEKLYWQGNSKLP

[10] = biological target: Beta-2 adrenergic receptor (Homo sapiens) (UniProt P07550); experiment: Beta2 (h) Eurofins-Cerep binding assay; settings: filed as antagonist, Compound concentration 10.0 uM
[11] = biological target: T4, GABA-A receptor; anion channel (Rattus norvegicus); experiment: BZD (central) Eurofins-Cerep binding assay; format: protein-complex assay; design: ligand concentration 0.4 nM; settings: filed as agonist, Compound concentration 10.0 uM
[12] = biological target: D(1A) dopamine receptor (Homo sapiens) (UniProt P21728); experiment: D1 (h) Eurofins-Cerep binding assay; design: ligand concentration 0.3 nM; settings: filed as antagonist, Compound concentration 10.0 uM
[13] = biological target: Neuromedin-K receptor (Homo sapiens) (UniProt P29371); experiment: NK3 (h) Eurofins-Cerep binding assay; design: ligand concentration 0.4 nM; settings: filed as antagonist, Compound concentration 10.0 uM
[14] = biological target: 5-hydroxytryptamine receptor 1B (Homo sapiens) (UniProt P28222); experiment: 5-HT1B(h) Eurofins-Cerep binding assay; design: ligand concentration 1 nM; settings: filed as antagonist, Compound concentration 10.0 uM
[15] = biological target: 5-hydroxytryptamine receptor 2A (Homo sapiens) (UniProt P28223); experiment: 5-HT2A (h) Eurofins-Cerep binding assay; design: ligand concentration 0.5 nM; settings: filed as antagonist, Compound concentration 10.0 uM
[16] = biological target: T2, 5-hydroxytryptamine receptor 3A (Homo sapiens); experiment: 5-HT3 (h) Eurofins-Cerep binding assay; design: ligand concentration 0.5 nM; settings: filed as antagonist, Compound concentration 10.0 uM
[17] = biological target: T3, 5-hydroxytryptamine receptor 5A; experiment: 5-HT5a (h) Eurofins-Cerep binding assay; design: ligand concentration 1.5 nM; settings: filed as agonist, Compound concentration 10.0 uM
[18] = biological target: L-type Ca2+ channel (diltiazem site, benzothiazepines) (Rattus norvegicus, UniProt P22002+P27732+Q02485); experiment: Ca2+ channel (L, diltiazem site) (benzothiazepines) Eurofins-Cerep binding assay; format: protein assay; design: incubation time 120 min, incubation temperature RT, ligand concentration 15 nM; settings: rat cerebral cortex, probe [3H]diltiazem, compound concentration 10 uM, read-out: % Inhibition of Control Specific Binding (Mean n=2)
[19] = biological target: Na+ channel (site 2) (Rattus norvegicus, UniProt F1LQQ7+O08562+O88420+O88457+P04774+P04775+P08104+P15389+P15390+Q62968); experiment: Na+ channel (site 2) Eurofins-Cerep binding assay; format: protein assay; design: incubation time 60 min, incubation temperature 37°C, ligand concentration 10 nM; settings: rat cerebral cortex, probe [3H]batrachotoxin, compound concentration 10 uM, read-out: % Inhibition of Control Specific Binding (Mean n=2)
[20] = biological target: T1, Sodium-dependent dopamine transporter; experiment: dopamine transporter (h) Eurofins-Cerep binding assay; design: ligand concentration 4 nM; settings: filed as antagonist, Compound concentration 10.0 uM
[21] = biological target: Histamine H2 receptor (Homo sapiens) (UniProt P25021); settings: Compound concentration 10.0 uM
[22] = biological target: Muscarinic acetylcholine receptor M3 (Homo sapiens) (UniProt P20309); settings: Compound concentration 10.0 uM
Chain of Muscarinic acetylcholine receptor M3 (Homo sapiens) (P20309 whole entry, looked up): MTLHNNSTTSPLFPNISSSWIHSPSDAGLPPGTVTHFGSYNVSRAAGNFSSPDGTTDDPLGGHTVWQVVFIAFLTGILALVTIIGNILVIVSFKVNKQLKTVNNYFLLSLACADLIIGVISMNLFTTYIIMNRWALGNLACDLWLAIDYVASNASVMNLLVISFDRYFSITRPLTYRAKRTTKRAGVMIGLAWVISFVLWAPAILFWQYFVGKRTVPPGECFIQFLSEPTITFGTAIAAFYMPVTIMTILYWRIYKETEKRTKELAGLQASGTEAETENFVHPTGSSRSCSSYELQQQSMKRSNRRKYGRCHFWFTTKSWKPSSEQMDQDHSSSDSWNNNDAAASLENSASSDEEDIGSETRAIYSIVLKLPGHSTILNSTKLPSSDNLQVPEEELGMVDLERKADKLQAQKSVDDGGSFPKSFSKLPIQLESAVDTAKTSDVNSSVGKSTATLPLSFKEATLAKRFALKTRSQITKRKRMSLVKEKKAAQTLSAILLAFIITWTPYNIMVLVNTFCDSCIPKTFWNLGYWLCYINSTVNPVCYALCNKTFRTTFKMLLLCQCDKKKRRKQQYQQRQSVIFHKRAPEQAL

T1 sequence (Q01959 whole entry): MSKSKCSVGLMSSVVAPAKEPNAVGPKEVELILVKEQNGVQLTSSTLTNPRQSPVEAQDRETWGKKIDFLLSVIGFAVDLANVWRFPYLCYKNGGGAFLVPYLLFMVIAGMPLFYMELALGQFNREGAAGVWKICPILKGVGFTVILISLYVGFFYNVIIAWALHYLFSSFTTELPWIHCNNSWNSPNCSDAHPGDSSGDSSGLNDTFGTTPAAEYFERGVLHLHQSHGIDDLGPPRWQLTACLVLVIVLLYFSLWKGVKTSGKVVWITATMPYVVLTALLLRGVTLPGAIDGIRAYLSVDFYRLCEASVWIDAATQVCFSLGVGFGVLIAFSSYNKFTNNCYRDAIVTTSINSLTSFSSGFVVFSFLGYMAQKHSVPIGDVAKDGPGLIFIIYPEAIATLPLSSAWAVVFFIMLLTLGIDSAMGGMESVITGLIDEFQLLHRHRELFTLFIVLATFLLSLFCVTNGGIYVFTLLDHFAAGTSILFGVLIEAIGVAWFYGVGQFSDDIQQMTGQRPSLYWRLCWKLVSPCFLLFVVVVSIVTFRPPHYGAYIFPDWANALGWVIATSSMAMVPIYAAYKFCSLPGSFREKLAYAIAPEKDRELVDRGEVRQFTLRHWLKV
Chain of Sodium-dependent noradrenaline transporter (Homo sapiens) (P23975 whole entry): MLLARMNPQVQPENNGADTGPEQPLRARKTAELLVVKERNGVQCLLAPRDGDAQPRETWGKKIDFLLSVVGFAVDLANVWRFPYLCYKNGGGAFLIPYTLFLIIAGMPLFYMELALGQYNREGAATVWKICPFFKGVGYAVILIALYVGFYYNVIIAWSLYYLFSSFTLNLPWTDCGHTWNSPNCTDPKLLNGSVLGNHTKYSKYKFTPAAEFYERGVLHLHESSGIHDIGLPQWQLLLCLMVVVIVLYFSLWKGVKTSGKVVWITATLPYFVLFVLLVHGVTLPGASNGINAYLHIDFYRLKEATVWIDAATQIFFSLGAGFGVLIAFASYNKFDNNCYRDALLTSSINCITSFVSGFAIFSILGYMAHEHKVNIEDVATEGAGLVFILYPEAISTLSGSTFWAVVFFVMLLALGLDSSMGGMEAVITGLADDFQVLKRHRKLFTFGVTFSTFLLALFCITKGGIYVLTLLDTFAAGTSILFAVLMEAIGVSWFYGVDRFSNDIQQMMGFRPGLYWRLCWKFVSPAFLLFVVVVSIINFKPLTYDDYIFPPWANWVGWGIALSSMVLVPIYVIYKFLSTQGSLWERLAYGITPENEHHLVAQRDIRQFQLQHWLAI
Chain of D(2) dopamine receptor (Homo sapiens) (P14416 whole entry): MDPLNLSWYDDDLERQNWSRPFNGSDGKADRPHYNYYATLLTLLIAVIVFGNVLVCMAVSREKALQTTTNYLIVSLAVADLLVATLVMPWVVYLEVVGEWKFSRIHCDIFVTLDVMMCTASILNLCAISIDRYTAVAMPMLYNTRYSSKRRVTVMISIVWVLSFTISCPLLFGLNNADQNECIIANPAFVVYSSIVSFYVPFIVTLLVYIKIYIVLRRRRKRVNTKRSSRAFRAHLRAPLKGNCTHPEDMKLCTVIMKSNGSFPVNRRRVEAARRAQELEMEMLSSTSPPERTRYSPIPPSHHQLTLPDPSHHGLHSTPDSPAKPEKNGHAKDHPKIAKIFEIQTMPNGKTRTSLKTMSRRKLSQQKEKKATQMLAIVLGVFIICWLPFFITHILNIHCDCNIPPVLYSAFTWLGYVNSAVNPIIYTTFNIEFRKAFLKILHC
T3 sequence (P47898 whole entry): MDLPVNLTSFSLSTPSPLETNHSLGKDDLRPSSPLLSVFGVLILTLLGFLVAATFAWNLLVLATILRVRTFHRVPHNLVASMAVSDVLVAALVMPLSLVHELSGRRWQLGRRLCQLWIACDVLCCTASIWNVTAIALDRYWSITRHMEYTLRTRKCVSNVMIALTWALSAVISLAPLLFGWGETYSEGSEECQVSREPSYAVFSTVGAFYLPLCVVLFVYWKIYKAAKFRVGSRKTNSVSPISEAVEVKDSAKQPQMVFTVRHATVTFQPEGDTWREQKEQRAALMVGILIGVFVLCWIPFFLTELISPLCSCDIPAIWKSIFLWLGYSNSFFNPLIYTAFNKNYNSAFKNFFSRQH
Chain of 5-hydroxytryptamine receptor 6 (P50406 whole entry): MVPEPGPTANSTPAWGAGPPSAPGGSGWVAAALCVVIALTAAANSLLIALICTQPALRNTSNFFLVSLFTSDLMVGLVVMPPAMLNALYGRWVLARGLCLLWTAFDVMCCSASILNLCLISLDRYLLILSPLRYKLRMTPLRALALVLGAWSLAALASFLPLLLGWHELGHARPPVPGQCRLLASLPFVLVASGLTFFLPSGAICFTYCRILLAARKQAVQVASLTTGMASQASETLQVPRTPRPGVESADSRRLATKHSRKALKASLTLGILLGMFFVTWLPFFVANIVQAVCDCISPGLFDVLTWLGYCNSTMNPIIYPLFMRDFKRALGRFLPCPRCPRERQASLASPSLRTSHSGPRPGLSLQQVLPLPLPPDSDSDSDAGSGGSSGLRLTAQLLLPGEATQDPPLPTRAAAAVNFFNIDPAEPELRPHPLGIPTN
Chain of Monocarboxylate transporter 4 (O15427 whole entry): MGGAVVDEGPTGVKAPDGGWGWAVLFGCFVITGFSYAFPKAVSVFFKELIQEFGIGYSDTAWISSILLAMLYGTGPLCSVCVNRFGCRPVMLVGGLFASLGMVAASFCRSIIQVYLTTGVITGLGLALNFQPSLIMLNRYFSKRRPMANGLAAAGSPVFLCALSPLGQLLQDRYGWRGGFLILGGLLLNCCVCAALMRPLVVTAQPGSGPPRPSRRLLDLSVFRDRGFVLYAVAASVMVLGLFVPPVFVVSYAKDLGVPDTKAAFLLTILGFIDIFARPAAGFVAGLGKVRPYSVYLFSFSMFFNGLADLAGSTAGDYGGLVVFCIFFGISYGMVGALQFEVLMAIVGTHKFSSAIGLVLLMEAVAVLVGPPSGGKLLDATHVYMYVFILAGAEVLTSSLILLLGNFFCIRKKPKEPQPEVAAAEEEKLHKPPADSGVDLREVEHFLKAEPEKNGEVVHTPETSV
Chain of 5-hydroxytryptamine receptor 2A (Homo sapiens) (P28223 whole entry): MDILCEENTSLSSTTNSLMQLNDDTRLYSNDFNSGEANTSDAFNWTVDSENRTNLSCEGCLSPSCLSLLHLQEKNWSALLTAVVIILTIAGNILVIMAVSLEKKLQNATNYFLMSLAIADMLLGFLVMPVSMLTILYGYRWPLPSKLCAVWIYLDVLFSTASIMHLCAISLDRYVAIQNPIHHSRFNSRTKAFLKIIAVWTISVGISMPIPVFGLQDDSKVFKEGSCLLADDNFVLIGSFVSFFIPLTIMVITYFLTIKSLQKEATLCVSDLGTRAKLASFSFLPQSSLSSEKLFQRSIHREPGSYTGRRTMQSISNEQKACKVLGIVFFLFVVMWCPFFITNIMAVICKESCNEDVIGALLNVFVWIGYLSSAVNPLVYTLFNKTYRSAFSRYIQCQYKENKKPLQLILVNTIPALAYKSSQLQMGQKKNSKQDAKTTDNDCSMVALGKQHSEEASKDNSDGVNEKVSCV
Chain of Beta-2 adrenergic receptor (Homo sapiens) (P07550 whole entry, looked up): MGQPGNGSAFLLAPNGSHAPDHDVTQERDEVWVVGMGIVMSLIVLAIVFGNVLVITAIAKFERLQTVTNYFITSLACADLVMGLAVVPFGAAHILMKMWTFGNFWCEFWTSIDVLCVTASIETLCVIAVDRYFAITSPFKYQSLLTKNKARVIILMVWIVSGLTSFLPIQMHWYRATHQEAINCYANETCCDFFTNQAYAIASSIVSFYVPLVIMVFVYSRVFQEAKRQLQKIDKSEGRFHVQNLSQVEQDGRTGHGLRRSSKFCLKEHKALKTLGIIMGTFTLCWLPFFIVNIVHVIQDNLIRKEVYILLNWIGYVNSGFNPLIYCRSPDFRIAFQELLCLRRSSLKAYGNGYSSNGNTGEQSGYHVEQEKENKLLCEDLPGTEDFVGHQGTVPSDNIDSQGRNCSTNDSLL
Chain of Histamine H2 receptor (Homo sapiens) (P25021 whole entry): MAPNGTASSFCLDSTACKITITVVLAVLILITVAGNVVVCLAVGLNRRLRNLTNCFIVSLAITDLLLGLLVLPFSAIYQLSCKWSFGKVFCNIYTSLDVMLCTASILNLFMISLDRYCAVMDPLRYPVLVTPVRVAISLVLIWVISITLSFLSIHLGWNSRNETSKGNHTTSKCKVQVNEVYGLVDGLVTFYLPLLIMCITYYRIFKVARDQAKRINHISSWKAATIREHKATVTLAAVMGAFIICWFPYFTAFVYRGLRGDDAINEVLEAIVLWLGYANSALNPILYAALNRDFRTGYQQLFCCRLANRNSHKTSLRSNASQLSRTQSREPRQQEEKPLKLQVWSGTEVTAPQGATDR

Ki ([1]; read-out: Ki): 1520 nM | Ki ([1]; read-out: pKi (converted)): 1450 nM | Ki ([2]; read-out: Ki): 9590 nM | Ki ([2]; read-out: pKi (converted)): 9550 nM | IC50 [3]: 506 nM (not active) | inhibition [4]: 1.13% | inhibition [5]: 12.2% | inhibition [6]: -0.32% | inhibition [7]: -7.14% | inhibition [8]: 19.4% | inhibition [9]: -3.36%
SMILES: COc1cc(C(=O)O)ncc1C#Cc1ccccc1NS(=O)(=O)c1cccc2c(N(C)C)ccnc12 [MSC-0516]

% Inhibition of Control Specific Binding (Mean n=2) [10]: -3.7% | % Inhibition of Control Specific Binding (Mean n=2) [11]: -7.6% | % Inhibition of Control Specific Binding (Mean n=2) [12]: 28.9% | % Inhibition of Control Specific Binding (Mean n=2) [13]: -8.7% | % Inhibition of Control Specific Binding (Mean n=2) [14]: -15.6% | % Inhibition of Control Specific Binding (Mean n=2) [15]: -4.1% | % Inhibition of Control Specific Binding (Mean n=2) [16]: -8% | % Inhibition of Control Specific Binding (Mean n=2) [17]: -20.7% | inhibition at 120 min, 10 µM [18]: -8.8% | % Inhibition of Control Specific Binding (Mean n=2) [20]: 7.8% | inhibition [4]: 9.43% | inhibition [6]: 9.9% | inhibition [7]: 34.4% | inhibition [21]: 24.2% | inhibition [22]: 9.34% | inhibition [9]: -6.26%
SMILES: CCOc1ccc(S(=O)(=O)Nc2ccc(Cl)cc2C#Cc2cnc(C(=O)O)cc2OC)c2ncccc12 [MSC-4381]
inhibition at 60 min, 10 µM [19]: -4.9%
